In the CheMixHub viscosity set:

Test: xn = mol fraction of the nth substance listed

ClC(Cl)Cl + CC(C)=O
Details | viscosity [mPa·s]
293.15 K, 101 kPa, x1 = 0.157 | 0.3875
293.15 K, 101 kPa, x1 = 0.362 | 0.466
293.15 K, 101 kPa, x1 = 0.483 | 0.511
293.15 K, 101 kPa, x1 = 0.609 | 0.5471
293.15 K, 101 kPa, x1 = 0.824 | 0.5836
293.15 K, 101 kPa, x2 = 0.112 | 0.565
293.15 K, 101 kPa, x2 = 0.2 | 0.561
293.15 K, 101 kPa, x2 = 0.3098 | 0.543
293.15 K, 101 kPa, x2 = 0.415 | 0.523
293.15 K, 101 kPa, x2 = 0.502 | 0.495
293.15 K, 101 kPa, x2 = 0.6075 | 0.456
293.15 K, 101 kPa, x2 = 0.715 | 0.421
293.15 K, 101 kPa, x2 = 0.81 | 0.384
293.15 K, 101 kPa, x2 = 0.9075 | 0.349
293.15 K, 101.33 kPa, x1 = 0.1193 | 0.357
293.15 K, 101.33 kPa, x1 = 0.2623 | 0.408
293.15 K, 101.33 kPa, x1 = 0.3723 | 0.453
293.15 K, 101.33 kPa, x1 = 0.5128 | 0.508
293.15 K, 101.33 kPa, x1 = 0.6064 | 0.538
293.15 K, 101.33 kPa, x1 = 0.7001 | 0.56
293.15 K, 101.33 kPa, x1 = 0.8577 | 0.583
293.16 K, 101 kPa, x1 = 0.1193 | 0.357
293.16 K, 101 kPa, x1 = 0.2623 | 0.408
293.16 K, 101 kPa, x1 = 0.3723 | 0.453
293.16 K, 101 kPa, x1 = 0.5128 | 0.508
293.16 K, 101 kPa, x1 = 0.6064 | 0.538
293.16 K, 101 kPa, x1 = 0.7001 | 0.56
293.16 K, 101 kPa, x1 = 0.8577 | 0.583
293.35 K, 101 kPa, x1 = 0.75 | 0.6037
293.45 K, 101 kPa, x1 = 0.5 | 0.5307
298.15 K, 101 kPa, x1 = 0.2 | 0.353
298.15 K, 101 kPa, x1 = 0.4 | 0.424
298.15 K, 101 kPa, x1 = 0.6 | 0.486
298.15 K, 101 kPa, x1 = 0.8 | 0.512
298.15 K, 101 kPa, x2 = 0.0555 | 0.5334
298.15 K, 101 kPa, x2 = 0.112 | 0.538
298.15 K, 101 kPa, x2 = 0.1361 | 0.5423
298.15 K, 101 kPa, x2 = 0.2 | 0.534
298.15 K, 101 kPa, x2 = 0.2192 | 0.5338
298.15 K, 101 kPa, x2 = 0.2437 | 0.536
298.15 K, 101 kPa, x2 = 0.3023 | 0.5258
298.15 K, 101 kPa, x2 = 0.3098 | 0.516
298.15 K, 101 kPa, x2 = 0.3737 | 0.508
298.15 K, 101 kPa, x2 = 0.415 | 0.495
298.15 K, 101 kPa, x2 = 0.4585 | 0.4864
298.15 K, 101 kPa, x2 = 0.496 | 0.4726
298.15 K, 101 kPa, x2 = 0.502 | 0.47
298.15 K, 101 kPa, x2 = 0.552 | 0.4529
298.15 K, 101 kPa, x2 = 0.5688 | 0.4495
298.15 K, 101 kPa, x2 = 0.6075 | 0.434
298.15 K, 101 kPa, x2 = 0.6721 | 0.411
298.15 K, 101 kPa, x2 = 0.6793 | 0.4052
298.15 K, 101 kPa, x2 = 0.6886 | 0.4042
298.15 K, 101 kPa, x2 = 0.715 | 0.402
298.15 K, 101 kPa, x2 = 0.7302 | 0.3926
298.15 K, 101 kPa, x2 = 0.7676 | 0.3817
298.15 K, 101 kPa, x2 = 0.8067 | 0.3628
298.15 K, 101 kPa, x2 = 0.81 | 0.367
298.15 K, 101 kPa, x2 = 0.8196 | 0.3551
298.15 K, 101 kPa, x2 = 0.8757 | 0.3425
298.15 K, 101 kPa, x2 = 0.9075 | 0.334
298.15 K, 101 kPa, x2 = 0.9182 | 0.3261
298.15 K, 101 kPa, x2 = 0.9233 | 0.3206
298.15 K, 101 kPa, x2 = 0.963 | 0.3092
298.15 K, 101.33 kPa, x1 = 0.1483 | 0.356
298.15 K, 101.33 kPa, x1 = 0.2721 | 0.4
298.15 K, 101.33 kPa, x1 = 0.3885 | 0.445
298.15 K, 101.33 kPa, x1 = 0.4985 | 0.485
298.15 K, 101.33 kPa, x1 = 0.6363 | 0.527
298.15 K, 101.33 kPa, x1 = 0.7114 | 0.543
298.15 K, 101.33 kPa, x1 = 0.8834 | 0.557
298.16 K, 101 kPa, x1 = 0.1483 | 0.356
298.16 K, 101 kPa, x1 = 0.2721 | 0.4
298.16 K, 101 kPa, x1 = 0.3885 | 0.445
298.16 K, 101 kPa, x1 = 0.4985 | 0.485
298.16 K, 101 kPa, x1 = 0.6363 | 0.527
298.16 K, 101 kPa, x1 = 0.7114 | 0.543
298.16 K, 101 kPa, x1 = 0.8834 | 0.557
302.95 K, 101 kPa, x1 = 0.25 | 0.3982
303.15 K, 101 kPa, x2 = 0.112 | 0.512
303.15 K, 101 kPa, x2 = 0.2 | 0.507
303.15 K, 101 kPa, x2 = 0.3098 | 0.488
303.15 K, 101 kPa, x2 = 0.415 | 0.468
303.15 K, 101 kPa, x2 = 0.502 | 0.447
303.15 K, 101 kPa, x2 = 0.6075 | 0.412
303.15 K, 101 kPa, x2 = 0.715 | 0.383
303.15 K, 101 kPa, x2 = 0.81 | 0.35
303.15 K, 101 kPa, x2 = 0.9075 | 0.322
303.15 K, 101.33 kPa, x1 = 0.1041 | 0.326
303.15 K, 101.33 kPa, x1 = 0.1842 | 0.352
303.15 K, 101.33 kPa, x1 = 0.2689 | 0.381
303.15 K, 101.33 kPa, x1 = 0.3733 | 0.424
303.15 K, 101.33 kPa, x1 = 0.5487 | 0.488
303.15 K, 101.33 kPa, x1 = 0.6876 | 0.514
303.15 K, 101.33 kPa, x1 = 0.8278 | 0.54
303.16 K, 101 kPa, x1 = 0.1041 | 0.326
303.16 K, 101 kPa, x1 = 0.1842 | 0.352
303.16 K, 101 kPa, x1 = 0.2689 | 0.381
303.16 K, 101 kPa, x1 = 0.3733 | 0.424
303.16 K, 101 kPa, x1 = 0.5487 | 0.488
303.16 K, 101 kPa, x1 = 0.6876 | 0.514
303.16 K, 101 kPa, x1 = 0.8278 | 0.54
303.55 K, 101 kPa, x1 = 0.75 | 0.5427
303.65 K, 101 kPa, x1 = 0.5 | 0.4779
308.15 K, 101 kPa, x2 = 0.112 | 0.487
308.15 K, 101 kPa, x2 = 0.2 | 0.482
308.15 K, 101 kPa, x2 = 0.3098 | 0.467
308.15 K, 101 kPa, x2 = 0.415 | 0.446
308.15 K, 101 kPa, x2 = 0.502 | 0.426
308.15 K, 101 kPa, x2 = 0.6075 | 0.398
308.15 K, 101 kPa, x2 = 0.715 | 0.365
308.15 K, 101 kPa, x2 = 0.81 | 0.336
308.15 K, 101 kPa, x2 = 0.9075 | 0.312
311.65 K, 101 kPa, x1 = 0.75 | 0.5052
313.15 K, 101 kPa, x1 = 0.157 | 0.3324
313.15 K, 101 kPa, x1 = 0.25 | 0.366
313.15 K, 101 kPa, x1 = 0.362 | 0.394
313.15 K, 101 kPa, x1 = 0.483 | 0.4257
313.15 K, 101 kPa, x1 = 0.609 | 0.4577
313.15 K, 101 kPa, x1 = 0.824 | 0.4867
313.85 K, 101 kPa, x1 = 0.5 | 0.4341
321.65 K, 101 kPa, x1 = 0.75 | 0.4644

CCCCCCCCCC(=O)OC + CCCCO
viscosity [mPa·s], 100 kPa
Details | 293.15 K | 298.15 K | 303.15 K | 308.15 K | 313.15 K | 318.15 K | 323.15 K
x1 = 0.09981 | 2.423 | 2.148 | 1.914 | 1.709 | 1.538 | 1.386 | 1.254
x1 = 0.1 | – | 2.153 | 1.921 | 1.715 | 1.537 | 1.384 | –
x1 = 0.2 | – | 1.948 | 1.745 | 1.569 | 1.419 | – | –
x1 = 0.2003 | 2.159 | 1.939 | 1.74 | 1.566 | 1.418 | 1.287 | 1.173
x1 = 0.3 | – | 1.841 | 1.656 | 1.504 | 1.359 | – | –
x1 = 0.3001 | 2.041 | 1.827 | 1.646 | 1.489 | 1.353 | 1.235 | 1.13
x1 = 0.3993 | 1.973 | 1.773 | 1.602 | 1.454 | 1.326 | 1.214 | 1.116
x1 = 0.4 | – | 1.794 | 1.616 | 1.464 | 1.333 | – | –
x1 = 0.5 | – | 1.765 | 1.597 | 1.452 | 1.332 | – | –
x1 = 0.501 | 1.95 | 1.755 | 1.59 | 1.446 | 1.322 | 1.213 | 1.117
x1 = 0.6001 | – | 1.77 | 1.6 | 1.458 | 1.331 | – | –
x1 = 0.6002 | 1.944 | 1.751 | 1.589 | 1.448 | 1.325 | 1.218 | 1.124
x1 = 0.6999 | – | 1.779 | 1.613 | 1.471 | 1.347 | – | –
x1 = 0.7028 | 1.958 | 1.767 | 1.603 | 1.463 | 1.341 | 1.234 | 1.14
x1 = 0.7953 | 1.986 | 1.793 | 1.629 | 1.487 | 1.364 | 1.257 | 1.163
x1 = 0.7987 | – | 1.808 | 1.646 | 1.497 | 1.372 | – | –
x1 = 0.8967 | – | 1.846 | 1.678 | 1.532 | 1.407 | – | –
x1 = 0.8999 | 2.03 | 1.835 | 1.668 | 1.524 | 1.399 | 1.29 | 1.194
